Data on twelve molecules can be found in ChEMBL document CHEMBL4422655, “Osthenol, a prenylated coumarin, as a monoamine oxidase A inhibitor with high selectivity” (Bioorg Med Chem Lett, 2019).

The target of experiment [1] is T1, Amine oxidase [flavin-containing] A (Mus musculus, UniProt Q64133).
T1 sequence (Q64133 whole entry): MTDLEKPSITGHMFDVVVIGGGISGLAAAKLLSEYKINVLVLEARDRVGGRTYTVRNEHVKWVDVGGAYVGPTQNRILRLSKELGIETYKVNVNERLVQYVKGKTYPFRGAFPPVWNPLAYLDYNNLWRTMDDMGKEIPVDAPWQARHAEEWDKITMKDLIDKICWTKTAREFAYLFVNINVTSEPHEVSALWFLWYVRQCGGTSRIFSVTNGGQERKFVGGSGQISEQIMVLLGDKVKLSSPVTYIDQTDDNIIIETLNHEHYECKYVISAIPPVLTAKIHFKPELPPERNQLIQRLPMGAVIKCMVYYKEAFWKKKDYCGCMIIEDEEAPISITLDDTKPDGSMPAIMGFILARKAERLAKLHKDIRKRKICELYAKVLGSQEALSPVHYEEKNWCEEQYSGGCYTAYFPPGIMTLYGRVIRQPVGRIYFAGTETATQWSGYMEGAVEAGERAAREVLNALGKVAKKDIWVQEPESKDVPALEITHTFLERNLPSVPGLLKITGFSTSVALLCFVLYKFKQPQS
In words: Inhibition of MAO-A in mouse brain mitochondrial fraction using kynuramine as substrate after 30 mins by fluorometric analysis.

Experiment [2] addresses T2, Amine oxidase [flavin-containing] A (Homo sapiens, UniProt P21397).
T2 sequence (P21397 whole entry): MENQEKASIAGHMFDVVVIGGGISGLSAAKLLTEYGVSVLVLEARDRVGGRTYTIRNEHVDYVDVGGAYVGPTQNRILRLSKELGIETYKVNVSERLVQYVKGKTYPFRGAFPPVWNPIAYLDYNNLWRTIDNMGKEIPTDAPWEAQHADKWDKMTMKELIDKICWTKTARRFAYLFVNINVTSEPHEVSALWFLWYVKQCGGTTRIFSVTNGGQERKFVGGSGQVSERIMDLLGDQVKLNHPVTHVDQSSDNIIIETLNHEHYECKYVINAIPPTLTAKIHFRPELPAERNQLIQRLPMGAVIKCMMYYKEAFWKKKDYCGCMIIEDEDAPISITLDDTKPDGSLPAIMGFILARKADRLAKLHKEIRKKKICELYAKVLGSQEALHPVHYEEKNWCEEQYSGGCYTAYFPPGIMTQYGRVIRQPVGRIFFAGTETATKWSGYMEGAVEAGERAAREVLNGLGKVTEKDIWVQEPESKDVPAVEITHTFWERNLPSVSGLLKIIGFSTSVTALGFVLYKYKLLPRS
In words: Inhibition of human recombinant MAO-A expressed in baculovirus infected BTI insect cells using kynuramine as substrate assessed as residual activity at 10 uM after 20 mins by spectrophotometric analysis relative to control. To be noted: read-out: Activity.

The species entered for experiment [3] is Homo sapiens. The experiment in a line: Selectivity index, ratio of IC50 for human recombinant MAO-B expressed in baculovirus infected BTI insect cells to IC50 for human recombinant MAO-A expressed in baculovirus infected BTI insect cells.
Experiment [4] deals with T2, Amine oxidase [flavin-containing] A. The experiment in a line: biochemical.
In experiment [5] the target is Acetylcholinesterase (Electrophorus electricus, UniProt O42275). The experiment in a line: Inhibition of electric eel AChE using acetylthiocholine iodide as substrate preincubated for 15 mins followed by substrate addition by Ellman's method.
Experiment [6] addresses T2, Amine oxidase [flavin-containing] A. In words: biochemical. The source holds these as a separate data set.
The target in experiment [7] is T3, Amine oxidase [flavin-containing] B (Homo sapiens, UniProt P27338).
T3 sequence (P27338 whole entry): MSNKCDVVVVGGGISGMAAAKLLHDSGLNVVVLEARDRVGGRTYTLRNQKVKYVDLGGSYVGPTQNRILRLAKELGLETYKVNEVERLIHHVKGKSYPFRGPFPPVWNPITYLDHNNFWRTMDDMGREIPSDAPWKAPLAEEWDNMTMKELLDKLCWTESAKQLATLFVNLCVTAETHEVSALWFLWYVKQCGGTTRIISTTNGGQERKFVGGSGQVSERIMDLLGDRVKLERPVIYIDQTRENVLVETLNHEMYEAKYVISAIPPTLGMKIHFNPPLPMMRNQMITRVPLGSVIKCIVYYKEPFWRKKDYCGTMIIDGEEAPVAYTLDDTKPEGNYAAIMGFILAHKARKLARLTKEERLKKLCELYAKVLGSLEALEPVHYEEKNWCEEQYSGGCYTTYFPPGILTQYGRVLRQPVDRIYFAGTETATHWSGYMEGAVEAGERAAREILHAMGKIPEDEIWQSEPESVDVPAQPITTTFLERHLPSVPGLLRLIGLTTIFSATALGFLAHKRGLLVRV
In words: biochemical. Format: cell-based.

Experiment [8] addresses T4, Amine oxidase [flavin-containing] A (Rattus norvegicus, UniProt P21396).
T4 sequence (P21396 whole entry): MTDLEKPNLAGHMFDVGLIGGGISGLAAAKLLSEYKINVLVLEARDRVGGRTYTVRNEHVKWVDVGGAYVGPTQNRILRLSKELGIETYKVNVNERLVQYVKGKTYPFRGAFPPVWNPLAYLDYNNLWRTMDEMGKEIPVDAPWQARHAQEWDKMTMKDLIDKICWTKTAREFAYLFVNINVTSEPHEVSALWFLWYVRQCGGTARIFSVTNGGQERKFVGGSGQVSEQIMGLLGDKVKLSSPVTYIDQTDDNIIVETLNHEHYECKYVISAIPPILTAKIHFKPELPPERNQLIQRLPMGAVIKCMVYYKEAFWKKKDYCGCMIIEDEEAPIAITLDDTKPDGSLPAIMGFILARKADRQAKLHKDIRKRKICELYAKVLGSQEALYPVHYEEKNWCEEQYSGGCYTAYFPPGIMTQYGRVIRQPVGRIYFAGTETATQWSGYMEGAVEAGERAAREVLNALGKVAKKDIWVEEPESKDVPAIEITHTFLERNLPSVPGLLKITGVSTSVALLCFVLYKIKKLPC
The experiment in a line: Inhibition of MAO-A in Sprague-Dawley rat brain mitochondrial fraction after 10 mins in presence of [14C]5-hydroxytryptamine by liquid scintillation analysis.

Experiment [9] deals with T3, Amine oxidase [flavin-containing] B. In words: Inhibition of human recombinant MAO-B expressed in baculovirus infected BTI insect cells using benzylamine as substrate assessed as residual activity at 10 uM after 30 mins by spectrophotometric analysis relative to control. The settings on record: 0.5 h, read-out: Activity.
Experiment [10] concerns the target T2, Amine oxidase [flavin-containing] A. In words: Irreversible inhibition of human recombinant MAO-A expressed in baculovirus infected BTI insect cells assessed as residual activity at 0.01 uM incubated for 30 mins followed by dialysis using kynuramine as substrate by spectrophotometric analysis relative to control. To be noted: 0.5 h, read-out: Activity.
The target is the same in experiment [11]. In words: Irreversible inhibition of human recombinant MAO-A expressed in baculovirus infected BTI insect cells assessed as residual activity at 0.01 uM incubated for 30 mins using kynuramine as substrate by spectrophotometric analysis relative to control. The settings on record: 0.5 h, read-out: Activity.
Experiment [12] has the same target. In words: Inhibition of human recombinant MAO-A expressed in baculovirus infected BTI-TN-5B1-4 insect cells using p-tyramine as substrate after 15 mins by resorufin dye-based spectrometric analysis.
For experiment [13] the target is unchanged. The experiment in a line: Reversible inhibition of human recombinant MAO-A expressed in baculovirus infected BTI insect cells assessed as residual activity at 1.5 uM incubated for 30 mins using kynuramine as substrate by spectrophotometric analysis relative to control. The settings on record: 0.5 h, read-out: Activity.
The target is the same in experiment [14]. The experiment in a line: Reversible inhibition of human recombinant MAO-A expressed in baculovirus infected BTI insect cells assessed as residual activity at 1.5 uM incubated for 30 mins followed by dialysis using kynuramine as substrate by spectrophotometric analysis relative to control. To be noted: 0.5 h, read-out: Activity.
Experiment [15] has the same target. The experiment in a line: Inhibition of human MAO-A using kynuramine as substrate after 30 mins by spectrophotometric analysis.
The species entered for experiment [16] is Homo sapiens. The experiment in a line: Selectivity index, ratio of IC50 for human recombinant MAO-B to IC50 for human recombinant MAO-A.
The target of experiment [17] is T2, Amine oxidase [flavin-containing] A. The experiment in a line: Reversible inhibition of human recombinant MAO-A expressed in baculovirus infected BTI insect cells assessed as residual activity at 2 uM incubated for 30 mins followed by dialysis using kynuramine as substrate by spectrophotometric analysis relative to control. To be noted: 0.5 h, read-out: Activity.

The target is the same in experiment [18]. The experiment in a line: Reversible inhibition of human recombinant MAO-A expressed in baculovirus infected BTI insect cells assessed as residual activity at 2 uM incubated for 30 mins using kynuramine as substrate by spectrophotometric analysis relative to control. To be noted: 0.5 h, read-out: Activity.

Sequence of Acetylcholinesterase (O42275 whole entry): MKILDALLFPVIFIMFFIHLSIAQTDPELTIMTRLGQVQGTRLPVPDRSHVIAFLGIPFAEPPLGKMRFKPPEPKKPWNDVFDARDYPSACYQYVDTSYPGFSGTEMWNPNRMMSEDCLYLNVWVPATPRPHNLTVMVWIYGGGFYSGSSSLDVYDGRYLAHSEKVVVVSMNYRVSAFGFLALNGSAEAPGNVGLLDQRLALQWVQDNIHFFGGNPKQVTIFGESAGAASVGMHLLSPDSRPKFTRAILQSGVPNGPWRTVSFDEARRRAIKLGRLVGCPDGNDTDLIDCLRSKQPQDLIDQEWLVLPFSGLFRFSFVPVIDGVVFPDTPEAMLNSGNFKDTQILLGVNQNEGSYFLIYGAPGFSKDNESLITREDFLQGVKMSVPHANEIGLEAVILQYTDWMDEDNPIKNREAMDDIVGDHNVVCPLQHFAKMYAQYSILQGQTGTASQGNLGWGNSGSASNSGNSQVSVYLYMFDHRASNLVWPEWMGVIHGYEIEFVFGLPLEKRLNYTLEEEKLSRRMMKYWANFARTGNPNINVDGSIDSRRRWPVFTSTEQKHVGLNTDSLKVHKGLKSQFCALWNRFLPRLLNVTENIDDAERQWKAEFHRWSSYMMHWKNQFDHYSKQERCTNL

Molecule `C=C(C)C(O)CC/C(C)=C/COc1ccc2ccc(=O)oc2c1` (stereo not drawn) yielded an IC50 in [1] of 1.3 µM.

As to `O=c1ccc2ccc3occc3c2o1` [ANGELICIN], the activity at 10 µM worked out at 12% in [2] and 27.2% in experiment [9]. Also, the Ratio IC50 in experiment [3] is 3.1. The affinity in experiment [4], expressed as Ki, was 0.46 µM. For the same molecule, the IC50 in experiment [5] was 25.4 µM; in experiment [6] it was 0.88 µM; in experiment [7] it was 2.73 µM; in experiment [8] it was 9 µM.

In the case of `O=c1ccc2c(ccc3ccoc32)o1` [BAKUCHICIN], the activity at 10 µM in [2] amounted to 18.6%; in experiment [9], 37.8%. The Ratio IC50 in [3] was 3.1. Besides, the values for the IC50 in experiment [5], in experiment [6] and in experiment [7] were 35.7 µM, 1.78 µM and 5.44 µM, respectively.

`C#CCN(C)CCCOc1ccc(Cl)cc1Cl` [CLORGILINE]: the values for the activity at 0.01 µM in experiment [10] and in experiment [11] were 23.3% and 20.4%, respectively.

In the case of `Oc1ccc(/C=C/c2cc(O)cc3c2[C@@H](c2cc(O)cc(O)c2)[C@H](c2ccc(O)cc2)O3)cc1` [EPSILON-VINIFERIN], the IC50 in [12] was 19.6 µM.

With `CC(C)=CCOc1c2ccoc2cc2oc(=O)ccc12` [ISOIMPERATORIN], the activity at 10 µM in experiment [2] was determined as 76.2%; in [9], 78.3%. For the same molecule, the IC50 in experiment [5] is 25.6 µM; in experiment [6], above 20 µM; in [7] it was above 60 µM.

In the case of `COc1ccc(-c2oc3cc(O)cc(O)c3c(=O)c2O)cc1` [KAEMPFERIDE], the Ratio IC50 in experiment [3] stood at 0.89. In experiment [6], the IC50 came to 0.19 µM.

On to `CC(C)=CCc1c(O)ccc2ccc(=O)oc12` [OSTHENOL], for which the activity at 10 µM was 9.9% in experiment [2] and 84.7% in experiment [9]. Besides, the Ratio IC50 in experiment [3] is above 81.1. Besides, the activity at 1.5 µM amounted to 23.7% in experiment [13] and 90.7% in experiment [14]. The same molecule yielded a Ki in experiment [4] of 0.26 µM. Besides, the IC50 in experiment [5] was 25.3 µM; in experiment [6] it was 0.74 µM; in [7], above 60 µM.

As for `O=c1ccc2cc3ccoc3cc2o1` [PSORALEN], the activity at 10 µM in experiment [2] came to 71%; in experiment [9], 78.3%. The IC50 is 29.5 µM in experiment [5], above 20 µM in experiment [6] and above 60 µM in experiment [7].

With `COc1cc(O)c2c(=O)c(O)c(-c3ccc(O)cc3)oc2c1` [RHAMNOCITRIN], in [15], 0.051 µM corresponded to half-maximal inhibition (IC50). In experiment [16], the Ratio IC50 worked out at 58.2.

With `COc1cc2ccc(=O)oc2cc1O` [SCOPOLETIN], the results for the activity at 10 µM in experiment [2] and in [9] were 97% and 97.7%, respectively. Also, the figures for the IC50 in experiment [5], in experiment [6] and in experiment [7] were 35.8 µM, above 20 µM and above 60 µM, respectively.

On to `Cc1cccc(N2CC(CO)OC2=O)c1` (stereo not drawn) [TOLOXATONE], for which the results for the activity at 2 µM in experiment [17] and in [18] were 88.6% and 28.4%, respectively.

The IC50 is the concentration at which inhibition is half-maximal. A word on the Ki: it is a dissociation constant, usually derived from enzyme kinetics or from competition with a known ligand. Higher therefore signals weaker binding.
